From PMC12247511, “Evolutionary diversification of acyl-CoA synthetases underpins hydrophobic barrier formation across diverse tomato tissues and beyond” (Horticulture Research, 2025)

T1: SlLACS2 (Solanum lycopersicum, UniProt Z9EVN9B4R8)
T1 construct: full-length ORF, His-tagged (pET28b, BamHI/SalI), E. coli Rosetta 2 (DE3), Ni-NTA
T1 sequence (Z9EVN9B4R8 1-659): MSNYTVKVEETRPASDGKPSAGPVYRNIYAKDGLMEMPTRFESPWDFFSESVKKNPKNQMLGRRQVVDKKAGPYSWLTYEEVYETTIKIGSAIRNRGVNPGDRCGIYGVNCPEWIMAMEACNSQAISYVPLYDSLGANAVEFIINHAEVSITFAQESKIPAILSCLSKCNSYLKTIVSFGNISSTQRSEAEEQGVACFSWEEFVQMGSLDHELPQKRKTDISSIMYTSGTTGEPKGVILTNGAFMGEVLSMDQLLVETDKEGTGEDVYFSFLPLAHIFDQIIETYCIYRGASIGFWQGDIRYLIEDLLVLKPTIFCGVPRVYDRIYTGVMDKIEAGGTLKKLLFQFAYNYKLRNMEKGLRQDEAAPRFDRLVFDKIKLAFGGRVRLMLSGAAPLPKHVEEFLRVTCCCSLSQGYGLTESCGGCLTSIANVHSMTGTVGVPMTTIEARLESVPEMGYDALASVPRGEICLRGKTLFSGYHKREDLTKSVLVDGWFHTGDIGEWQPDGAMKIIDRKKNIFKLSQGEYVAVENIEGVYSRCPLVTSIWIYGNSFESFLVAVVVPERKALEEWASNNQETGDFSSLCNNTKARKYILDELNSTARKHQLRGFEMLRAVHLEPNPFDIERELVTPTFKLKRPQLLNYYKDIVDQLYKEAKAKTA


How the values were obtained:
[1] = tested on: T2, MvLACS; assay: coupled myokinase/pyruvate kinase/lactate dehydrogenase assay, NADH at […] nm; format: biochemical, Mesostigma viride; conditions: 0.1 M Tris-HCl pH 7.5, 30 °C, 5 mM ATP, 0.5 mM CoA, 10 mM MgCl2, 2 mM DTT; fatty acid 0-1 mM from stock in 5% Triton X-100
T2 construct: full-length ORF, His-tagged (pET28b, BamHI/SalI), E. coli Rosetta 2 (DE3), Ni-NTA

[2] = tested on: T3, MeLACS; assay: as above; format: biochemical, Mesotaenium endlicherianum; conditions: 0.1 M Tris-HCl pH 7.5, 30 °C, 5 mM ATP, 0.5 mM CoA, 10 mM MgCl2, 2 mM DTT; fatty acid 0-1 mM from stock in 5% Triton X-100
T3 construct: full-length ORF, His-tagged (pET28b, BamHI/SalI), E. coli Rosetta 2 (DE3), Ni-NTA

[3] = biological target: T1, SlLACS2; assay: as above; format: biochemical; conditions: 0.1 M Tris-HCl pH 7.5, 30 °C, 5 mM ATP, 0.5 mM CoA, 10 mM MgCl2, 2 mM DTT; fatty acid 0-1 mM from stock in 5% Triton X-100
[4] = substrate: CCCCCCCCCCCCCCCCCC(=O)O; assay: purified protein; format: biochemical, Solanum lycopersicum; conditions: 0.1 M Tris-HCl pH 7.5, 30 °C, 5 mM ATP, 0.5 mM CoA, 10 mM MgCl2, 2 mM DTT, fatty acid 0-1 mM from stock in 5% Triton X-100
[5] = substrate: CCCCCCCCCCCCCCCC(=O)O; assay: purified protein; format: biochemical, Solanum lycopersicum; conditions: 0.1 M Tris-HCl pH 7.5, 30 °C, 5 mM ATP, 0.5 mM CoA, 10 mM MgCl2, 2 mM DTT, fatty acid 0-1 mM from stock in 5% Triton X-100

Row | Km [1] [µM] | Km [2] [µM] | Km [3] [µM] | Molecule | Km [4] [µM] | kcat [4] [s⁻¹] | Km [5] [µM] | kcat [5] [s⁻¹]
1 | ~32 | ~180 | ~7 | CCCCCCCCCCCCCCCC(=O)O [palmitate (C16:0)] | – | – | – | –
2 | ~40 | ~166 | ~6 | CCCCCCCCCCCCCCCCCC(=O)O [sterate (C18:0)] | – | – | – | –
3 | – | – | – | SlLACS1 (Solanum lycopersicum) (protein, full-length ORF, His-tagged (pET28b, BamHI/SalI), E. coli Rosetta 2 (DE3), Ni-NTA) MSMNKFGLKVEEGKEGKNGEPSIGPVYRNPIAKNGFPSADPDLSTAWQLFRSAVEKYPGNRMLGWRDFKDGKWGPYNWKTYKEAYEETLQTGSALRAHGIEPGARIGIYGANCPQWIVAMEACSAHSLICVPLYDTLGSGAVDFIIEHAEIDIVFVQDKKVKELLNAECTHAKRLKLIVCFTLLQQEEKDKAVSMNIKPYSWNEFLNMGKENPSEPSPPQPLDICTIMYTSGTSGEPKGVILTHENMTASVTGVDHFMEEFEDKMTVDDVYISFLPLAHILDRMIEEFFFHRGASVGYFHGNINEIQEDMMELKPTFLAGVPRVYEKVHEGVLKALEELNPFRRHMFHVLYNFKLKWMNLGYKQKYASRLADLLAFRKVKNRLGGRIRLIVSGGAPLSTEVEEFLRVTSCGFVLQGYGLTETCGLATIGHPDEMCMLGTVGPPFVFTEVRLEEVPEMGYDPLADPSRGEICVRGRTTFTGYYKNPELTREAIKDGWFHTGDIGEMMPNGVVKVIDRKKNVIKLSQGEYVALEYLEKVYAIAPIVEDIWVYGDSFKSMLIAVVAPHEGNTKKWADKNGHKGSITELCSLQDLNQYVLLELKSAAERNKLRGFENIKGVILEPQPFEFDKELVTATMKKRRERLLKRYKLEIDDLYKRLNAAAKR | 9.6 ± 1.4 | 0.08 ± 0.0033 | 42.4 ± 3.8 | 0.102 ± 0.01
